The values below come from patent publication US20210283099A1, “CDC7 KINASE INHIBITORS AND USES THEREOF” (SLOAN-KETTERING INSTITUTE FOR CANCER RESEARCH, priority 2010, published 2021).

As a reminder, the IC50 is the concentration needed to halve the response being measured.

Each structure is given as a SMILES string.

In test [1] the test system is A2780. The experiment in a line: Cytotoxicity assay (Alamar blue). Format: cell-based. The settings on record: Human ovarian carcinoma. How it is done:
(§1) FIGS. 16A-16B. Granaticin A and Granaticin B inhibit multiple tumor types: The indicated cell lines and primary patient samples were tested against the compounds listed in standard cytotoxicity assays (12 point dose response using Alamar blue reduction as an indicator of cell viability). Assays were done in triplicate and IC50 determinations were run in 12-point serial dilutions from […] to 5 nM. […] These include ras and EGFR gatekeeper mutation containing cell lines in addition to p53 mutant cell lines and other known chemotherapy resistant cell lines. Specifically, this included multi-drug resistance phenotype (MDR-overexpressing) cell lines from multiple hematologic and solid tumor cell lines. Table 1 highlights a series of primary patient leukemia samples-both acute and chronic and treatment naïve and refractory tested against granaticins A and B and Derivatives 1 and 2 (see Examples).

For test [2], the system named is ALL3. Put plainly: Cytotoxicity assay (Alamar blue). The settings on record: Human Acute Lymphoblastic leukemia, Philadelphia chromosome positive. It counts as cell-based. How it is done: as §1
Test [3] concerns FUUR1. Put plainly: Cytotoxicity assay (Alamar blue). It counts as cell-based. The settings on record: human renal cell carcinoma with the reciprocal ASPL-TFE3 fusion transcript. How it is done:
as §1
(Alamar Blue is a resazurin reagent that responds to reducing activity.)

Test [4] has as its system HCC4011. The experiment in a line: Cytotoxicity assay (Alamar blue). Format: cell-based. The settings on record: Human lung adenocarcinoma, L858R EGFR mutation, wild-type KRAS. How it is done: as §1
In test [5] the test system is HPLD1. Put plainly: Cytotoxicity assay (Alamar blue). To be noted: Immortalized human bronchiolar epithelial cell with SV-40 Large T antigen. Format: cell-based. How it is done: as §1
In test [6] the test system is HTB15. The experiment in a line: Cytotoxicity assay (Alamar blue). Format: cell-based. To be noted: Human Glioblastoma (U-118MG). On the procedure: as §1
Test [7] relates to JAMC. Put plainly: Cytotoxicity assay (Alamar blue). It counts as cell-based. The settings on record: Homo sapiens, Patient sample of AML with inversion of chromosome 16. How it is done:
as §1

Test [8] deals with JAQU. Put plainly: Cytotoxicity assay (Alamar blue). The settings on record: Homo sapiens, Patient sample of relapsed/refractory pre-B cell acute lymphoblastic leukemia. It counts as cell-based. On the procedure: as §1
Test [9] has as its system JOHO. Put plainly: Cytotoxicity assay (Alamar blue). To be noted: Homo sapiens, Patient sample of primary refractory AML with inv3 and monosomy 7 (refractory to allogeneic BMT). Format: cell-based. How it is done: as §1
For test [10], the system named is JURKAT E61. Put plainly: Cytotoxicity assay (Alamar blue). Format: cell-based. The settings on record: Jurkat E6.1, Human Acute Lymphoblastic T-cell leukemia. How it is done:
as §1

Test [11] concerns K562. Put plainly: Cytotoxicity assay (Alamar blue). It counts as cell-based. The settings on record: Human Chronic Myelogenous leukemia transformed to acute erythroleukemia. How it is done: as §1
The test system of test [12] is KASUMI4. The experiment in a line: Cytotoxicity assay (Alamar blue). Format: cell-based. The settings on record: Kasumi-4, Human CML transformed to acute myeloid leukemia, overexpression of EVI1. On the procedure: as §1
Test [13] concerns MAWI B. Put plainly: Cytotoxicity assay (Alamar blue). It counts as cell-based. The settings on record: Homo sapiens, Patient sample of secondary chronic myelogenous leukemia. On the procedure: as §1
The subject of test [14] is MAWI. Put plainly: Cytotoxicity assay (Alamar blue). It counts as cell-based. The settings on record: Homo sapiens, Patient sample of relpased/refractory AML with normal cytogenetics. How it is done:
as §1

In test [15] the test system is MDA-MB -231. Put plainly: Cytotoxicity assay (Alamar blue). It counts as cell-based. The settings on record: human metastatic breast adenocarcinoma, estrogen, progesterone, and HER2/NEU receptor negative. How it is done: as §1
For test [16], the system named is MEG01. The experiment in a line: Cytotoxicity assay (Alamar blue). It counts as cell-based. The settings on record: MEG-01, Human CML transformed to acute Megakaryoblastic leukemia. On the procedure:
as §1

Test [17] concerns PAPR. The experiment in a line: Cytotoxicity assay (Alamar blue). The settings on record: Homo sapiens, Patient sample of relapsed acute myelomonocytic leukemia. Format: cell-based. How it is done: as §1
Test [18] deals with PC9. The experiment in a line: Cytotoxicity assay (Alamar blue). Format: cell-based. To be noted: PC-9, Human lung adenocarcinoma, DelE746-A750 EGFR mutation. How it is done: as §1
Test [19] has as its system SOPA. Put plainly: Cytotoxicity assay (Alamar blue). Format: cell-based. To be noted: Homo sapiens, Patient sample of secondary AML with chromsome 11q23 abnormality. How it is done:
as §1

The subject of test [20] is STGL. The experiment in a line: Cytotoxicity assay (Alamar blue). The settings on record: Homo sapiens, Patient sample of refractory AML with multiple chromosomal abnormalities (refractory to allogeneic BMT). It counts as cell-based. How it is done: as §1
In test [21] the test system is Y79. Put plainly: Cytotoxicity assay (Alamar blue). Format: cell-based. The settings on record: Human retinoblastoma. How it is done:
as §1

The subject of test [22] is PhALL3.1 cells. The experiment in a line: Caspase 3 fluorometric activity assay in G1 synchronized cells. It counts as cell-based, human. The settings on record: 10 hours following release of G1 synchronized cells.
In test [23] the test system is OVCAR3 cells. The experiment in a line: OVCAR3 intraperitoneal ovarian cancer model in SCID-Beige mice. Format: in vivo, mouse. To be noted: 3 mg/kg intraperitoneally daily days 7-14; imaging on day 42. How it is done:
(§2) FIG. 22A-22C. Granaticin B is Effective Against Multiple Solid Tumors: granaticin B is efficacious against mouse models of melanoma (FIG. 22A), non-small cell lung cancer (FIG. 22B), and ovarian cancer (FIG. 22C). For the ovarian cancer experiments, SCID-Beige mice were injected with 5 million OVCAR3 cells that had been transduced with a GFP-firefly luciferase expressing plasmid (Frattini, M. G. and Brentjens, R. J., unpublished data). These cells were then injected intraperitoneally into 4 cohorts of mice on Day 1. From days 7-14 the mice were injected daily with the indicated concentrations of granaticin B in the intraperitoneal space. […] Nude mice were treated with 2.5 mg/kg/day granaticin B in a continuous fashion using osmotic diffusion pumps. Sections of the treated xenografts are shown after euthanasia at day 28 and H&E staining.

For test [24], the system named is SKMEL-28. Put plainly: Nude mouse xenograft, melanoma. Format: in vivo. To be noted: 2.5 mg/kg/day continuous, osmotic diffusion pumps; sections at day 28. On the procedure:
as §2

Test [25] relates to JOKE-2 cells. Put plainly: Trypan blue viability and caspase-3 assay. It counts as cell-based, human. The settings on record: 1 microM. How it is done:
FIGS. 24A-24B. […] The JOKE-2 cell line was derived from a patient with Philadelphia chromosome positive Acute Lymphoblastic Leukemia (Ph-ALL). […] FIG. 24A: Joke-2 cells were grown in the presence of DMSO control or granaticin B (1 microM) for the indicated times and viability was measured after staining a cell sample in trypan blue (Sigma-Aldrich).

For `CC1OC2CC(O)C1(O)c1c(O)c3c(c(O)c12)C(=O)C1=C(C3=O)[C@H](C)O[C@H]2CC(=O)O[C@@H]12` (some centres unmarked) [Granaticin A, granaticin A], the IC50 worked out at 120 nM in test [1]; 140 nM in [2]; 480 nM in test [3]; 140 nM in test [4]; 180 nM in test [5]; 650 nM in [6]. The IC50 in test [7] was 60 nM; in [8] it was 50 nM; in [9] it was 880 nM; in test [10], 50 nM; in test [11] it was 120 nM; in [12], 300 nM. The IC50 in test [13] is 420 nM; in test [14] it was 720 nM; in test [15] it was 470 nM; in test [16], 170 nM; in test [17], 990 nM; in [18] it was 300 nM. The IC50 in test [19] was 100 nM; in test [20] it was 1880 nM; in test [21] it was 60 nM. Moreover, the “caspase 3 activity / apoptosis” value in test [22] is listed as “induces Caspase 3-mediated apoptosis”.
Regarding `CC1OC2CC(O[C@H]3CC[C@H](O)[C@H](C)O3)C1(O)c1c(O)c3c(c(O)c12)C(=O)C1=C(C3=O)[C@H](C)O[C@H]2CC(=O)O[C@@H]12` (some centres unmarked) [Granaticin B, granaticin B], the IC50 in test [1] turned out to be 20 nM; in [2], 30 nM; in test [3] it was 340 nM; in test [4] it was 50 nM; in test [5] it was 40 nM; in test [6], 460 nM. Also, the IC50 in [7] turned out to be 40 nM; in test [8], 10 nM; in test [9], 170 nM; in [10], 20 nM; in test [11] it was 80 nM; in test [12], 180 nM. For the same molecule, the IC50 came out at 160 nM in test [13]; 180 nM in test [14]; 290 nM in test [15]; 80 nM in test [16]; 490 nM in [17]; 70 nM in test [18]. In addition, the IC50 in test [19] came out at 90 nM; in [20] it was 620 nM; in test [21], 50 nM. Further, the “disease by luciferase imaging” value in test [23] was “essentially no disease”. Further, in test [24], the “efficacy in mouse model of melanoma” value was “efficacious”. In addition, the caspase-3 activation result in test [25] is listed as “only activated in cells exposed to granaticin B”. For the same molecule, the “effect on viability (trypan blue)” value in test [25] was “very effective”.
